These results are taken from US9511010B2, “Compounds useful in the treatment and/or care of the skin, hair and/or mucous membranes and their cosmetic or pharmaceutical compositions” (Lubrizol Advanced Materials, Inc., priority 2012, dated 2016).

For data set [1], the system named is FOXO response elements. Kind of data set: Stimulation of the expression of proteins regulated by FOXO: luciferase reporter under FOXO response elements. Conditions: 0.5 mg/mL, 24 hours; carrier (0.05% DMSO) = 100. The format is cell-based, human. As to the method:
The activation capacity of the FOXO response elements was evaluated in a human epithelial cell line stably transfected with the luciferase gene under the control of a regulatory sequence which contains different FOXO response elements which are in the promoters of the FOXO target genes. The activation capacity of the FOXO response elements indicates the expression of proteins regulated by FOXO. 30,000 cells per well were seeded in a total volume of 100 μL of RPMI 1640 culture medium. After 24 hours the cells with RPMI 1640 culture medium were washed and were incubated with the compounds of the invention at 0.5 mg/mL for 24 hours in a total volume of 100 μL per well. The carrier in which the compounds of the invention were dissolved was used (0.05% DMSO) as a negative control.
The measurement of the activity of the promoter was carried out using the Steady-Go Luciferase Assay System kit following the manufacturer's instructions. The luminescence values (RLU/sec) caused by the reaction between luciferase and the substrate were quantified with a luminometer and normalized by the cell number (absorbance at 630 nm), and the activity of the promoter was determined, which was standardized with regard to the negative control values.
Each experiment was carried out three times in 3 independent experiments.
In general terms: In a reporter assay the amount or activity of a reporter protein is the signal.

The subject of data set [2] is HDFa cells. Kind of data set: Photoprotective effectiveness in human fibroblasts (Neutral Red viability after solar simulation irradiation). The format is cell-based. Conditions: for Effectiveness Photoprotection (%): irradiated; for Cell viability: preincubated 1 hour, irradiated ~60 J/cm^2, irradiated control 50.72%. As to the method: HDFa cells were put in culture medium for 24 hours in 96-well plates to form monolayers. Afterwards the cells were preincubated in darkness with 0.5 mg/mL, 0.1 mg/mL, 0.01 mg/mL of Ac-L-Tyr-L-Glu-L-Lys-L-Leu-L-Gln-L-Val-NH2 (Ac-SEQ ID NO:22-NH2) in PBS or PBS alone (control) for 1 hour at 37° C. and humidified air with 5% CO2.
The cells were irradiated with a solar simulation lamp at ˜60 J/cm^2 for 210 min at room temperature. A control plate was kept in the dark for the same time at room temperature. Once irradiation was completed the culture medium was changed for a new one and the plates were incubated for another 24 hours.
(§1) The cell viability was determined with the Neutral Red dye, measuring the absorbency at 540 nm in a spectrophotometer.
The photoprotective effectiveness was determined by comparing the viability obtained in cells treated with Ac-L-Tyr-L-Glu-L-Lys-L-Leu-L-Gln-L-Val-NH2 (Ac-SEQ ID NO:22-NH2) with the irradiated and non-irradiated control cell response.

The subject of data set [3] is HDFa cells. Kind of data set: Photo repair effectiveness in human fibroblasts (Neutral Red viability, treatment after irradiation). Type of data set: cell-based. To be noted: for Cell viability: irradiated control 63.06%; for Effectiveness Photo-repair (%): irradiated. As to the method:
HDFa cells were put in culture medium for 24 hours in 96-well plates to form monolayers at 37° C. and humidified air with 5% CO2. Afterwards the culture medium was changed for D-PBS and the cells were irradiated with a solar simulation lamp at ˜40 J/cm^2 for 180 min at room temperature. A control plate was kept in the dark for the same time at room temperature.
Afterwards 0.5 mg/mL, 0.1 mg/mL, 0.01 mg/mL of Ac-L-Tyr-L-Glu-L-Lys-L-Leu-L-Gln-L-Val-NH2 (Ac-SEQ ID NO:22-NH2) in culture medium or culture medium alone (control) were added to the cells and they were incubated for 24 hours in darkness at 37° C. and humidified air with 5% CO2.
as §1
The photorepair effectiveness was determined by comparing the viability obtained in cells treated with Ac-L-Tyr-L-Glu-L-Lys-L-Leu-L-Gln-L-Val-N H2 (Ac-SEQ ID NO:22-NH2) with the irradiated and non-irradiated control cell response.

For data set [4], the system named is Fibroblasts from a sample of human skin. Kind of data set: Alkaline comet assay, protection against genotoxicity induced by photo-activated benzo[a]pyrene (BaP). Type of data set: cell-based. Conditions: 0.01 mg/mL. As to the method: Fibroblasts from a sample of human skin were isolated and incubated with 0.01 mg/mL of Ac-L-Tyr-L-Glu-L-Lys-L-Leu-L-Gln-L-Val-NH2 (Ac-SEQ ID NO:22-NH2) or carrier (control) with and without the presence of 40 μM BaP for 2 hours at 37° C. Once this contact time was over the cells were irradiated with 90 KJ/m^2 UVA/visible light (320-800 nm) for a maximum of 2 min at 4° C. to induce photo activation of BaP which damages the DNA. This damage was analyzed by the alkaline comet assay, detecting the DNA breakages. The protective effectiveness of the damage to the DNA of the different treatments was determined by analyzing the images using the software Fenestra Komet 5.5, expressing the damage to the DNA as the Olive Tail Moment (OTM; arbitrary units) and the χ^2 OTM function was determined, related to the quantity of damaged DNA, with the software TableCurve 2D.
As a negative control all the non-irradiated treatments were included (control, 40 μM BaP, 0.01 mg/mL of Ac-SEQ ID NO:22-NH2 and 0.01 mg/mL of (Ac-SEQ ID NO:22-NH2)+40 μM BaP). In table 14 the protective effectiveness results of Ac-SEQ ID NO:22-NH2 in human fibroblasts are shown.
The protection percentage conferred by the compound Ac-SEQ ID NO:22-NH2 against DNA damage induced by BaP was shown as the relationship of the value of χ^2 OTM for treatment with the compound Ac-SEQ ID NO:22-NH2 in the presence of photo-activated BaP with regard to the value of χ^2 OTM of the treatment with photo-activated BaP according to the formula resulting in a protection percentage conferred by the compound Ac-SEQ ID NO:22-NH2 against damage to DNA induced by BaP of 84.3%.

Turning to “Ac-YEKLQV-NH2 [Ac-SEQ ID NO: 22-NH2, Ac-L-Tyr-L-Glu-L-Lys-L-Leu-L-Gln-L-Val-NH2]”, the “Stimulation Average (%) of the activation of the FOXO response factors” value in data set [1] is 186%. The “Effectiveness Photoprotection (%)” value is 16.24% in data set [2] (0.01 mg/mL), 20.06% in data set [2] (0.1 mg/mL) and 35.10% in data set [2] (0.5 mg/mL). In addition, the Cell viability in data set [2] (0.01 mg/mL) was 58.96%; in data set [2] (0.1 mg/mL), 60.90%; in data set [2] (0.5 mg/mL) it was 68.52%; in data set [3] (0.01 mg/mL for 24 hours after irradiation ~40 J/cm^2), 71.99%; in data set [3] (0.1 mg/mL for 24 hours after irradiation ~40 J/cm^2), 70.71%; in data set [3] (0.5 mg/mL for 24 hours after irradiation ~40 J/cm^2), 71.40%. For the same substance, the “Effectiveness Photo-repair (%)” value in data set [3] (0.01 mg/mL) was 14.16%; in data set [3] (0.1 mg/mL) it was 12.13%; in data set [3] (0.5 mg/mL) it was 13.23%. The “χ^2 OTM” value came out at 3.52 in data set [4] (40 μM BaP, irradiation with UVA/visible, BaP alone 11.38); 2.18 in data set [4] (40 μM BaP, no irradiation, BaP alone 2.07); 2.09 in data set [4] (no BaP, irradiation with UVA/visible, control 2.25); 2.26 in data set [4] (no BaP, no irradiation, control 2.08). Also, the “protection percentage against damage to DNA induced by BaP” value in data set [4] (photo-activated 40 μM BaP) was determined as 84.3%.
